Paper PMC12304826, “Redirecting the Peptide Cleavage Causes Protease Inactivation” (Angewandte Chemie (International Ed. in English), 2025)

Each molecule was assayed against T1, human cathepsin S (Homo sapiens, UniProt P25774) (assay: Cathepsin S inhibition assay (Cbz-Phe-Arg-AMC)). Conditions: 20 µM inhibitor, 60 min; read-out: Residual activity @ 20 µM (%) Cat S.
T1 construct: purchased Enzo Life Sciences, Lörrach, Germany
Format: biochemical
Experimental: 1. Enzyme Inhibition Assays and Kinetic Data of Inhibition of Cathepsins B, L, K and S General. Human cathepsins were assayed either fluorimetrically or spectrophotometrically as noted below. The 10 mM inhibitor solutions were prepared in DMSO. The final concentration of DMSO in all assays was 2%. Non-linear regressions were conducted with GraFit 5. Residual cathepsin activity at an inhibitor concentration of 20 µM was determined from duplicate measurements based on the product formation after 60 min. Concentration dependent measurements were performed in duplicate measurements with five different inhibitor concentrations when the residual cathepsin activity in the presence of 20 µM inhibitor was below 70% (cathepsin B) or below 50% (cathepsins cathepsins L, K, and S). Progress curves were monitored for 60 min. First-order rate constants, kobs, were determined by non-linear regression following the equation [P] = vi × (1 – exp(-kobs × t))/kobs + d, where [P] is the product concentration, vi is the initial product formation rate, kobs is the observed first-order rate constant, and d is the offset. Mean values of kobs were plotted versus corresponding inhibitor concentrations [I], and second-order rate constants of inactivation, kinac/Ki, were obtained by linear regression. The equation kobs/[I] = (kinac/Ki)/(1 + [S]/Km) was used, where [S] is the substrate concentration and Km is the Michaelis-Menten constant. Standard errors (SE) refer to the linear regression. […]
methyl-coumarin (AMC)-based fluorogenic substrate Cbz-Leu-Arg-AMC was prepared in DMSO. The final concentration of the substrate was 40 μM (= 13.3 Km). When using the spectrofluorometer, into a cuvette containing 960 μL assay buffer, inhibitor solution and DMSO in a total volume of 16 μL, and 4 […]
When using the plate reader, into a well containing 192 µL assay buffer, inhibitor solution and DMSO in a total volume of 3.2 µL and 0.8 µL of the substrate solution were added and mixed. The reaction was initiated by adding 4 µL of the cathepsin K solution.
Cathepsin S inhibition assay.[2] Human recombinant cathepsin S (Enzo Life Sciences, Lörrach, […]
nm and for emission 440 nm. The reactions were followed at 25 °C. Assay buffer was 100 mM sodium phosphate buffer pH 6.0, 100 mM NaCl, 5 mM EDTA, and 0.01% Brij 35. A stock solution of human cathepsin S of 70 μg/mL in 100 mM MES buffer, pH 6.5, 1 mM EDTA, 50 mM L-cysteine, 10 mM DTT, 0.5% Triton X-100 and 30% glycerol was diluted 1:100 with a 50 mM sodium phosphate buffer pH 6.5, 50 mM NaCl, 2 mM EDTA, 0.01% Triton X-100 and 5 mM DTT and incubated for 60 min at 37 °C. A 10 mM stock solution of the fluorogenic substrate Cbz-Phe-Arg-AMC was prepared in DMSO.
The assay was performed with a final substrate concentration of 40 µM (= 0.74 Km). When using the spectrofluorometer, into a cuvette containing 920 μL assay buffer, inhibitor solution and DMSO in a total volume of 16 μL, and 4 μL of the substrate solution were added and mixed. The reaction was initiated by adding 60 μL of the cathepsin S solution. When using the plate reader, into a well containing 188 µL assay buffer, inhibitor solution and DMSO in a total volume of 3.2 µL and 0.8 µL of the substrate solution were added and mixed. The reaction was initiated by adding […] of the cathepsin S solution.

T1 sequence (P25774 115-331): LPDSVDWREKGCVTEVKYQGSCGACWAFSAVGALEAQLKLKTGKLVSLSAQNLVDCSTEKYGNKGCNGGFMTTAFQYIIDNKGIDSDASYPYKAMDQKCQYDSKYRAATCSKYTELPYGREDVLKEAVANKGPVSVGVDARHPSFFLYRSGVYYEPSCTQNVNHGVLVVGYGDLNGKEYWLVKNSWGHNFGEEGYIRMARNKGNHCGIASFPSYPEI

Compound | remaining activity at 20 µM [%]
CC(C)CC(NC(=O)Oc1ccccc1)C(=O)NC(Cc1ccccc1)C(=O)O (centres unmarked) [Compound 1] | 97
CC(C)C[C@H](NC(=O)Oc1ccc(Cl)cc1)C(=O)N[C@@H](Cc1ccccc1)C(=O)OC(C)(C)C [Compound 2] | ≥ 98
COC(=O)C(Cc1ccccc1)NC(=O)C(CC(C)C)NC(=O)Oc1ccc(Cl)cc1 (centres unmarked) [Compound 3] | 79
CC(C)C[C@H](NC(=O)Oc1ccc(Cl)cc1)C(=O)N[C@@H](Cc1ccccc1)C(=O)O [Compound 4] | 83
O=C(NC(CC1CCCCC1)C(=O)NC(Cc1ccccc1)C(=O)O)Oc1ccc(Cl)cc1 (centres unmarked) [Compound 7] | 72
CC(C)C[C@H](NC(=O)Oc1ccc(Cl)cc1)C(=O)N1CCC[C@H]1C(=O)O [Compound 8] | ≥ 98
CC(C)CC(CNC(=O)Oc1ccc(Cl)cc1)C(=O)N1CCC[C@@H]1C(=O)O (some centres unmarked) [Compound 9] | 92
CC(C)C[C@H](NC(=O)Oc1ccc(Cl)cc1)C(=O)N1CCCC[C@H]1C(=O)O [Compound 10] | ≥ 98
CC(C)C[C@@H](C(=O)N1CCC[C@H]1C(=O)O)N(C)C(=O)Oc1ccc(Cl)cc1 [Compound 15] | ≥ 98
CC(C)CC(OC(=O)Nc1ccc(Cl)cc1)C(=O)N[C@@H](Cc1ccccc1)C(=O)O (some centres unmarked) [Compound 16] | 56
CC(C)CC(OC(=O)Nc1ccc(Cl)cc1)C(=O)N1CCC[C@H]1C(=O)O (some centres unmarked) [Compound 17] | 93
CC(C)C[C@H](NC(=O)Nc1ccc(Cl)cc1)C(=O)N[C@@H](Cc1ccccc1)C(=O)O [Compound 18] | 78
CC(C)C[C@H](NC(=O)Nc1ccc(Cl)cc1)C(=O)N1CCC[C@H]1C(=O)O [Compound 19] | ≥ 98
CC(C)C[C@H](NC(=O)Oc1ccc(Cl)c(NC(=O)Cc2ccccc2)c1)C(=O)N1CCC[C@H]1C(=O)O [Compound 20] | 93
CC(C)C[C@H](NC(=O)Oc1ccc(-c2ccccc2)c(NC(=O)Cc2ccccc2)c1)C(=O)N1CCC[C@H]1C(=O)O [Compound 21] | 89
CC(C)CC(NC(=O)Oc1ccc(Cl)c(NC(=O)C(c2ccccc2)c2ccccc2)c1)C(=O)N1CCCC1C(=O)O (centres unmarked) [Compound 22] | 87
CC(C)C[C@H](NC(=O)Oc1cccc(Cl)c1)C(=O)N1CCC[C@H]1C(=O)O [Compound 23] | 89
CC(C)C[C@H](NC(=O)Oc1ccc(NC(=O)Cc2ccccc2)c(Cl)c1)C(=O)N1CCC[C@H]1C(=O)O [Compound 24] | 90
CC(C)C[C@H](NC(=O)Oc1ccc(NC(=O)N(Cc2ccccc2)Cc2ccccc2)c(Br)c1)C(=O)N1CCC[C@H]1C(=O)O [Compound 26] | 59
CC(C)CC(NC(=O)Oc1ccc(NC(=O)C(c2ccccc2)c2ccccc2)c(Br)c1)C(=O)N1CCCC1C(=O)O (centres unmarked) [Compound 27] | 60
CC(C)CC(NC(=O)Oc1ccc(NC(=O)C(c2ccccc2)c2ccccc2)c(Cl)c1)C(=O)N1CCCC1C(=O)O (centres unmarked) [Compound 28] | 58

Same assay, conditions: five inhibitor concentrations, 60 min progress curves

Compound | kinac/Ki ± SE Cat S [M⁻¹ s⁻¹]
CC(C)CC(CNC(=O)Oc1ccc(Cl)cc1)C(=O)N[C@H](Cc1ccccc1)C(=O)O (some centres unmarked) [Compound 5] | 10.2

Same assay, conditions: inhibitor not soluble at 20 µM; calculated for 20 µM from IC50 at two lower concentrations; read-out: Residual activity @ 20 µM (%) Cat S, approximated [e]

Compound | remaining activity at 20 µM [%]
CC(C)CC(NC(=O)Oc1ccc(NC(=O)c2ccc(-c3ccccc3)cc2)c(Cl)c1)C(=O)N1CCCC1C(=O)O (centres unmarked) [Compound 25] | 53
CC(C)CC(NC(=O)Oc1ccc(NC(=O)C(c2ccccc2)c2ccccc2)c(Cl)c1)C(=O)NC(Cc1ccccc1)C(=O)O (centres unmarked) [Compound 29] | 63
O=C(NC(CC1CCCCC1)C(=O)NC(Cc1ccccc1)C(=O)O)Oc1ccc(NC(=O)C(c2ccccc2)c2ccccc2)c(Cl)c1 (centres unmarked) [Compound 30] | 42
O=C(NC(CC1CCCCC1)C(=O)NC(Cc1ccccc1)C(=O)O)Oc1ccc(NC(=O)C(Cc2ccccc2)Cc2ccccc2)c(Cl)c1 (centres unmarked) [Compound 31] | 46
